Experimental data taken from patent publication US5266698A, “Certain aryl and cycloalkyl fused imidazopyrazinediones; a new class of GABA brain receptor ligands” (Neurogen Corporation, priority 1992, dated 1993).

Tests used:
GABA receptor = settings: stereoisomers of bicuculline; Tallman et al., 1978, Nature, 274: 383-85; cited from earlier work
[1] = biological target: GABAa receptor (benzodiazepine receptor); assay: GABAa receptor binding assay ([3H]-Flumazenil (RO15-1788) displacement, rat cortical tissue); settings: rat cortical tissue homogenate; 0.5 nM 3H-RO15-1788; 30 min at 4° C., pH 7.4; nonspecific: 1.0 mM diazepam
Protocol: The pharmaceutical utility of compounds of this invention are indicated by the following assay for GABAa receptor activity.
Assays are carried out as described in Thomas and Tallman (J. Bio. Chem. 156: 9838-9842, J. Neurosci. 3:433-440, 1983). Rat cortical tissue is dissected and homogenized in 25 volumes (w/v) of 0.05M Tris HCl buffer (pH 7.4 at 4° C.). The tissue homogenate is centrifuged in the cold (4°) at 20,000×g for 20'. The supernatant is decanted and the pellet is rehomogenized in the same volume of buffer and again centrifuged at 20,000×g. The supernatant is decanted and the pellet is frozen at -20° C. overnight. The pellet is then thawed and rehomogenized in 25 volume (original wt/vol) of buffer and the procedure i carried out twice. The pellet is finally resuspended in 50 volumes (w/vol of 0.05M Tris HCl buffer (pH 7.4 at […]).
Incubations contain […] of tissue homogenate, […] of radioligand 0.5 nM (^3 H-RO15-1788 [^3 H-Flumazenil] specific activity 80 Ci/mmol), drug or blocker and buffer to a total volume of […]. Incubations are carried for 30 min at 4° C. then are rapidly filtered through GFB filters to separate free and bound ligand. Filters are washed twice and fresh 0.05M Tris HCl buffer (pH 7.4 at 4° C.) and counted in a liquid scintillation counter. 1.0 mM diazepam is added to some tubes to determine nonspecific binding. Data are collected in triplicate determinations, averaged and % inhibition of total specific binding is calculated. Total Specific Binding=Total-Nonspecific. In some cases, the amounts of unlabeled drugs is varied and total displacement curves of binding are carried out. Data are converted to a form for the calculation of IC50 and Hill Coefficient (nH).

For `CN1CCc2cc3c(cc2C1C1OC(=O)c2c1ccc1c2OCO1)OCO3` (single isomer, unassigned; (+)) [(+) bicuculline], which “Block of enhancement of benzodiazepine binding by GABA agonists” value (GABA receptor) is on record?
The value was “blocked”.

For `CN1CCc2cc3c(cc2C1C1OC(=O)c2c1ccc1c2OCO1)OCO3` (single isomer, unassigned; (-)) [(-) bicuculline], which “Block of enhancement of benzodiazepine binding by GABA agonists” value (GABA receptor) is on record?
Its value is “much less active”.

For `COc1ccc(-n2c(=O)c3c[nH]c4cccnc4n-3c2=O)cc1` [Compound 5, 2-(4-Methoxyphenyl)-imidazo[1,5,a]pyrido[3,2-e]pyrazine-2,3(2H,5H)-dione], which IC50 [1] is on record?
The IC50 was 9 nM.

For `O=c1c2c[nH]c3cccnc3n-2c(=O)n1-c1ccccc1` [Compound 1, 2-Phenyl-imidazo[1,5,a]pyrido[3,2-e]pyrazine-1,3(2H,5H)-dione], which IC50 [1] is on record?
The IC50 was 10 nM.

With `CCOc1ccc(-n2c(=O)c3c[nH]c4cccnc4n-3c2=O)cc1` [Compound 8, 2-(4-Ethoxyphenyl)-imidazo[1,5,a]pyrido[3,2-e]pyrazine-2,3(2H,5H)-dione] as the molecule, how does the IC50 [1] read?
Its IC50 is 20 nM.
